Columns and labels:
ID8 cells = test: Subcellular localization (co-localization with MitoTracker, LysoTracker, NucBlue); type: cell-based, murine; settings: 10 μM, 30 min incubation
Description: FIG. 3 Subcellular localization of pH sensing NIR fluorophores: (a) Subcellular localization of each probe (10 μM) in ID8 cells was determined after 30 min of incubation at 37° C. Nuclei, mitochondria, and lysosomes were stained with NucBlue, MitoTracker Green, or LysoTracker Red, respectively. Representative fluorescence images of cells. Scale bar=20 μm. (b) Co-localization index of each probe with MitoTracker Green or LysoTracker Red. The index was calculated by dividing the area of overlap between pH probe and MitoTracker or LysoTracker by the total area of MitoTracker or LysoTracker, respectively. The co-localization index was determined in 5-6 photographic areas (70×92 μm^2 each) for each probe. *P<0.05 by two-way ANOVA followed by Tukey's multiple comparisons test. Error bars show means±s.d.
Live-cell labeling and in vitro imaging: Murine ovarian cancer cells (ID8 cells) were obtained from Dr. Wang's lab in the Vincent Center for Reproductive Biology at Massachusetts General Hospital (MGH). Cells were cultured and maintained in Dulbecco's modified Eagle's medium (DMEM) supplemented with 4% FBS (Gibco, Grand Island, NY), 1% insulin-transferrin-selenium (Sigma-Aldrich), and 1% penicillin-streptomycin (Gibco). Cells were plated in a T-75 culture flask until 70% confluency before dividing for the next passage. For fluorophore binding affinity, ID8 cells were incubated at a density of 20,000 cells/well in a 24-well plate in a humidified incubator at 37° C. under 5% CO2 in the air. Cells were then incubated at 37° C. for 30 min in the presence of 0.2 μM of PH03 or PH08 and phenol red-free Hank's balanced salt solution (HBSS) with or without 10% FBS. […] Image acquisition and analysis were performed using IPLab software (Scanalytics, Fairfax, VA), and the fluorescent intensity of each cell was measured using ImageJ (National Institutes of Health, Bethesda, MD). The outline of each cell was determined on a phase-contrast image to specify the region of interest (ROI) and superimposed on a fluorescence image for measurements. All NIR fluorescence images for each fluorophore were normalized identically for all conditions during an experiment. […]
Subcellular distribution of pH sensing NIR fluorophores: To investigate the fate of the NIR fluorophores after uptake by cells, we performed in vitro live-cell imaging and evaluated subcellular localization of the NIR fluorophores in cultured ID8 ovarian cancer cells. PH03 and PH08 were incubated with ID8 cells for 30 min followed by double staining with commercially available MitoTracker or LysoTracker Green and imaged under the house-built NIR fluorescence microscope. […]

[1] = test system: ID8 ovarian cancer tumor tissue; test: Histological analysis of tumor-targetability of the NIR fluorophore; type: in vivo, mice; settings: frozen sections, 4 h post-injection of 20 nmol
Description: Histological analysis of tumor-targetability of the NIR fluorophore: To determine the tissue distribution of the NIR fluorophore, tumors and major organs were removed from ID8 ovarian cancer-bearing mice 4 h post-injection with 20 nmol of PH08 in 100 μL of 5% wt/v BSA/saline. The dissected tissues were trimmed and embedded in Tissue-Tek optimum cutting temperature (OCT) compound (Sakura Finetek, Torrance, CA) without a pre-fixation step, and the tissue block was frozen at −80° C. Ten-μm thick frozen sections were cut by a cryostat (Leica, Germany). The slides were subject to fluorescence analysis first, then stained for hematoxylin and eosin (H&E). Fluorescence and brightfield images were acquired on the 4-channel Nikon TE2000 epifluorescence microscope. Image acquisition and analysis were performed using IPLab software (Scanalytics, Fairfax, VA). […] Exposure times were adjusted to obtain a similar maximum fluorescence value for each fluorescence image. […] In order to validate the tumor-specific fluorescence signal, frozen sections including both tumor and adjacent normal tissues harvested from tumor-bearing mice were examined by fluorescence microscopy. […] The fluorescence signal was mostly seen on the top 3-4 layers of cells in the tumor tissue, of which the signal was found predominantly in the extracellular space and cytoplasm.

Row | Compound | overlap of fluorescence signal with LysoTracker (lysosome) (ID8 cells) [%] | overlap of fluorescence signal with MitoTracker (mitochondria) (ID8 cells) [%] | fluorescence signal in tissue sections [1]
1 | CCN1/C(=C/C=C2\CCCC(/C=C/C3=[N+](CC)c4ccccc4C3(C)C)=C2c2ccccc2)C(C)(C)c2ccccc21 [PH03, 1-Ethyl-2-((E)-2-((E)-6-(2-((E)-1-ethyl-3,3-dimethylindolin-2-ylidene)ethylidene)-3,4,5,6-tetrahydro-[1,1′-biphenyl]-2-yl)vinyl)-3,3-dimethyl-3H-indol-1-ium iodide] | 34.93 | 91.47 | –
2 | CCN1/C(=C/C=C2\CCCC(/C=C/C3=[N+](CC)c4ccccc4C3(C)C)=C2N2CCNCC2)C(C)(C)c2ccccc21 [PH08] | 71.83 | 83.05 | detected throughout the tumor tissue with no substantial fluorescence signals in neighboring muscles
